Reference: the supplement of paper PMC10307832

Tests used:
Experiment in all cases: relative viability (nuclei count vs DMSO), 5 days (fraction); higher = more cells survive
[1] = compound: C1COCCN1C2=NC(=NC3=C2OC4=C3C=CC=N4)C5=CC(=CC=C5)NC(=O)C6=CN=C(C=C6)N + C[C@@H](Oc1cc(-c2cnn(C3CCNCC3)c2)cnc1N)c1c(Cl)ccc(F)c1Cl [Crizotinib] (partner 1 µM)
Method in brief: (§1)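 Relative viability is defined as nuclei in treated wells over nuclei in vehicle wells. Duplicate plates were run and medians reported. Lung cancer cell lines in 1536-well plates were dosed by pin tool one day after seeding, with one drug or with a fixed anchor-drug dose plus five library-drug doses (not always all listed) in √10 steps, and nuclei were counted after 5 days.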

[2] = compound: C1COCCN1C2=NC(=NC3=C2OC4=C3C=CC=N4)C5=CC(=CC=C5)NC(=O)C6=CN=C(C=C6)N + Nc1ncn([C@H]2C[C@H](O)[C@@H](CO)O2)c(=O)n1 [Decitabine] (partner 2 µM)
Method in brief: as §1

SGI-1776 + Luminespib = compound: CN1CCC(CNc2ccc3ncc(-c4cccc(OC(F)(F)F)c4)n3n2)CC1 [SGI-1776] + CCNC(=O)c1noc(-c2cc(C(C)C)c(O)cc2O)c1-c1ccc(CN2CCOCC2)cc1 [Luminespib] (partner 0.01 µM)
Method in brief: as §1

Entinostat + Luminespib = compound: Nc1ccccc1NC(=O)c1ccc(CNC(=O)OCc2cccnc2)cc1 [Entinostat] + CCNC(=O)c1noc(-c2cc(C(C)C)c(O)cc2O)c1-c1ccc(CN2CCOCC2)cc1 [Luminespib] (partner 0.01 µM)
Method in brief: as §1

Which relative viability ([1]; first compound 0.02 µM) does the source give for UMC-11 here?
The relative viability was 0.564.

And the relative viability ([1]; first compound 0.06325 µM)?
Its relative viability is 0.59.

What about the relative viability ([1]; first compound 0.2 µM) of the same cell line?
Its relative viability is 0.677.

What about the relative viability ([1]; first compound 0.6325 µM) of the same cell line?
Its relative viability is 0.672.

What about the relative viability ([1]; first compound 2 µM) of the same cell line?
Its relative viability is 0.498.

What about the relative viability ([2]; first compound 0.02 µM) of the same cell line?
Its relative viability is 0.582.

And the relative viability ([2]; first compound 0.06325 µM)?
The relative viability was 0.537.

What about the relative viability ([2]; first compound 0.2 µM) of the same cell line?
The relative viability was 0.551.

What about the relative viability ([2]; first compound 0.6325 µM) of the same cell line?
Its relative viability is 0.537.

And the relative viability ([2]; first compound 2 µM)?
The relative viability was 0.573.

What about the relative viability (SGI-1776 + Luminespib; first compound 0.08 µM) of the same cell line?
The relative viability was 1.02.

What about the relative viability (SGI-1776 + Luminespib; first compound 0.8 µM) of the same cell line?
The relative viability was 0.971.

What about the relative viability (SGI-1776 + Luminespib; first compound 2.53 µM) of the same cell line?
Its relative viability is 0.899.

And the relative viability (SGI-1776 + Luminespib; first compound 8 µM)?
The relative viability was 0.862.

What about the relative viability (Entinostat + Luminespib; first compound 0.02 µM) of the same cell line?
The relative viability was 1.06.

And the relative viability (Entinostat + Luminespib; first compound 0.06325 µM)?
Its relative viability is 1.14.

And the relative viability (Entinostat + Luminespib; first compound 0.2 µM)?
Its relative viability is 0.937.

And the relative viability (Entinostat + Luminespib; first compound 0.6325 µM)?
Its relative viability is 0.261.

What about the relative viability (Entinostat + Luminespib; first compound 2 µM) of the same cell line?
The relative viability was 0.221.
